Values after ≈ are worked out from the molar mass of the structure shown.
What was measured:
[1] = target: T1, 5-hydroxytryptamine receptor 1A (Homo sapiens) (UniProt P08908); assay: Biased agonist activity at human recombinant 5-HT1A receptor stably expressed in CHO-K1 cells assessed as inhibition of forskolin-induced cAMP accumulation after 40 mins by LANCE Ultra cAMP kit-based TR-FRET assay relative to serotonin; format: functional, cell-based
T1 sequence (whole entry): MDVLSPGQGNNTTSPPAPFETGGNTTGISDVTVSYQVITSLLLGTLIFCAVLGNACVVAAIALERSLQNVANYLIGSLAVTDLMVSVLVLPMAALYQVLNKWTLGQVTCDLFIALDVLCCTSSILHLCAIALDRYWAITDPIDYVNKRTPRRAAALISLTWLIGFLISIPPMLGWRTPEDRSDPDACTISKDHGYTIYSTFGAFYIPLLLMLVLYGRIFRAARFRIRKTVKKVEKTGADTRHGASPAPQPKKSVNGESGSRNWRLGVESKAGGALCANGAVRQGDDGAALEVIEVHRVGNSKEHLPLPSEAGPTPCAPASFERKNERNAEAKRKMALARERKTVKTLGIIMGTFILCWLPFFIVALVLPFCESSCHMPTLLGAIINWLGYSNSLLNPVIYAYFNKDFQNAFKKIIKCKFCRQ

[2] = target: T1, 5-hydroxytryptamine receptor 1A (Homo sapiens); assay: Biased agonist activity at human recombinant 5-HT1A receptor stably expressed in CHO-K1 cells assessed as increase in calcium mobilization measured at 2 sec intervals for 180 secs by Fluo-4AM dye based fluorescence assay relative to serotonin; format: functional, cell-based; conditions: time 180.0 sec
[3] = target: T1, 5-hydroxytryptamine receptor 1A (Homo sapiens); assay: Biased agonist activity at human recombinant 5-HT1A receptor stably expressed in CHO-K1 cells assessed as increase in ERK1/2 phosphorylation levels incubated for 15 mins by Alphalisa assay relative to serotonin; format: cell-based
[4] = target: T2, Adrenergic receptor alpha-1 (Rattus norvegicus, UniProt P15823+P23944+P43140); assay: Displacement of [3H]-prazosin from alpha1 adrenergic receptor in rat cortex measured after 30 mins by microbeta2 scintillation counting method; format: tissue-based
T2 sequence (P15823 whole entry): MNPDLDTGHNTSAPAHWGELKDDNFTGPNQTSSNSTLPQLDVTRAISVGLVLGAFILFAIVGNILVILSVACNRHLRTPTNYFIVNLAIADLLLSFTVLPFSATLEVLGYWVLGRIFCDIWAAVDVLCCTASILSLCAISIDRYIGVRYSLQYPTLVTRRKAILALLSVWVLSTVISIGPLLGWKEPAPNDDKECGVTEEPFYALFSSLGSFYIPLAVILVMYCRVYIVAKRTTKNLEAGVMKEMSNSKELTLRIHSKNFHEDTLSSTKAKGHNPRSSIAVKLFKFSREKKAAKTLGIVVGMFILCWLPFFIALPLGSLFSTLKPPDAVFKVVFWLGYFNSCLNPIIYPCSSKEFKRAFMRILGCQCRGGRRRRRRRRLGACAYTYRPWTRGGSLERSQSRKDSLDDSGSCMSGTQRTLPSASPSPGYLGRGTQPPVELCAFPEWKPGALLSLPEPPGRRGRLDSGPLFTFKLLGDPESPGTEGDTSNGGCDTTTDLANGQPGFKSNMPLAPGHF
T2 sequence (P23944 whole entry): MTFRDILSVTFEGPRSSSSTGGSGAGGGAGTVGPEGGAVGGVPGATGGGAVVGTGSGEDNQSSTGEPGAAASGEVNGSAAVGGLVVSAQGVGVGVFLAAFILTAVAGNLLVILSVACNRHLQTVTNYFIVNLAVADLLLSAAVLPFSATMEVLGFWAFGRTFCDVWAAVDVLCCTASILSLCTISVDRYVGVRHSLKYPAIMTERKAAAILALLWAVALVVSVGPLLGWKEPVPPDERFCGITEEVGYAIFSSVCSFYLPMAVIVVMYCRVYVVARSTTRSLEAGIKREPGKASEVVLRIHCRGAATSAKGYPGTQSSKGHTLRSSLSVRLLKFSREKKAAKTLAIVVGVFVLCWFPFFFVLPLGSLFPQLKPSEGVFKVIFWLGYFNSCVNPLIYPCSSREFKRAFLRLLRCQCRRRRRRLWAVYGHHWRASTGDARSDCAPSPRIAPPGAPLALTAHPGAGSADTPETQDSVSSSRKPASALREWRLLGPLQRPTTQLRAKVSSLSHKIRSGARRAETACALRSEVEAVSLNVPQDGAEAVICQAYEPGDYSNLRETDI
T2 sequence (P43140 whole entry): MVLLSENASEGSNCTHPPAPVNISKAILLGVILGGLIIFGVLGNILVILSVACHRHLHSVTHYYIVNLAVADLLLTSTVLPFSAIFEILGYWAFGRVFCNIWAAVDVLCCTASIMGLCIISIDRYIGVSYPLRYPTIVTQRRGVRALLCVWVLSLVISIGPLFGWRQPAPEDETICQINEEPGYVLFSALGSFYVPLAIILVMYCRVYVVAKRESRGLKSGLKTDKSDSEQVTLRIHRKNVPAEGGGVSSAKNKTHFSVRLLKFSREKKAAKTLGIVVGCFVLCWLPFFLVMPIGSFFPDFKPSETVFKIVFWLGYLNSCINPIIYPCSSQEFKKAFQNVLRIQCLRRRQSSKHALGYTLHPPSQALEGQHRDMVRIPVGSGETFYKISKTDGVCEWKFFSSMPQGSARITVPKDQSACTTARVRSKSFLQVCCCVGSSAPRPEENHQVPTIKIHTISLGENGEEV

[5] = target: T1, 5-hydroxytryptamine receptor 1A (Homo sapiens); assay: Biased agonist activity at Gal4-VP16 transcription factor linked human 5-HT1A receptor expressed in human U2OS cells assessed as stimulation of beta-arrestin recruitment measured after 5 hrs by Tango assay relative to serotonin; format: cell-based
[6] = target: T3, 5-hydroxytryptamine receptor 1A (Homo sapiens, UniProt P08908); assay: Displacement of [3H]8-OH-DPAT from recombinant human 5HT1A receptor stably expressed in CHO-K1 cell membranes measured after 60 mins by microbeta2 scintillation counting method; design: species or system Cell membrane
T3 sequence (P08908 whole entry): T1 sequence (whole entry)

[7] = target: D(2) dopamine receptor (Homo sapiens, UniProt P14416); assay: Displacement of [3H]-methylspiperone from recombinant human D2 receptor stably expressed in CHO-K1 cell membranes measured after 60 mins by microbeta2 scintillation counting method; design: species or system Cell membrane
Chain of D(2) dopamine receptor (P14416 whole entry): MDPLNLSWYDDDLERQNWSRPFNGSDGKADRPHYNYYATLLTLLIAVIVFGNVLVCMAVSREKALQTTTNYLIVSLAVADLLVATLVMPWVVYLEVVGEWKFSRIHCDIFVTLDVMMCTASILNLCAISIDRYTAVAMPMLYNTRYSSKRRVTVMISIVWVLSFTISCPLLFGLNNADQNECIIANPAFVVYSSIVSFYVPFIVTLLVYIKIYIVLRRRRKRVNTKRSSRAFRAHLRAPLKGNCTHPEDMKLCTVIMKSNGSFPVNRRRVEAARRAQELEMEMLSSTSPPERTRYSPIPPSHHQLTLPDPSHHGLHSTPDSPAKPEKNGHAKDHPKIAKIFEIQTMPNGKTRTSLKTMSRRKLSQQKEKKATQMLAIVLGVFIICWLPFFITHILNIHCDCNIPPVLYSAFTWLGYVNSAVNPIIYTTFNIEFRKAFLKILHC

[8] = system: Rattus norvegicus; assay: Antidepressant-like activity in Wistar rat assessed as minimum effective dose causing reduction in immobility time administered intraperitoneally with compound 60 mins prior to testing and measured for 5 mins test period by Porsolt-forced swim test; format: functional; conditions: ip, 1.083 h, time 65 min, read-out: MED
[9] = system: Rattus norvegicus; assay: Antidepressant-like activity in Wistar rat assessed as reduction in immobility time at 15 mg/kg, ip administered 60 mins prior to testing and measured for 5 mins test period by Porsolt-forced swim test; format: functional; design: scale not given: the % may be the effect or the level left; conditions: time 65 min, 1.083 h
[10] = Permeability of compound across basolateral to apical side in human Caco-2 cells at pH 7.4; format: ADME, cell-based; conditions: Caco-2, pH 7.4, read-out: permeability
[11] = in vitro; conditions: human, liver microsomes
[12] = Aqueous solubility of compound in pH 7.4 PBS buffer at 200 uM; format: physicochemical
[13] = target: T1, 5-hydroxytryptamine receptor 1A (Homo sapiens); assay: Bias factor, ratio of biased agonist activity at human recombinant 5-HT1A receptor stably expressed in CHO-K1 cells assessed as increase in ERK1/2 phosphorylation levels to biased agonist activity at human recombinant 5-HT1A receptor stably expressed in CHO-K1 cells assessed as inhibition of forskolin-induced cAMP accumulation; format: functional, cell-based
[14] = target: T3, 5-hydroxytryptamine receptor 1A; assay: Biased agonist activity at human recombinant 5-HT1A receptor stably expressed in CHO-K1 cells assessed as inhibition of forskolin-induced cAMP accumulation after 40 mins by LANCE Ultra cAMP kit-based TR-FRET assay; format: functional, cell-based
[15] = target: T3, 5-hydroxytryptamine receptor 1A; assay: Biased agonist activity at human recombinant 5-HT1A receptor stably expressed in CHO-K1 cells assessed as increase in ERK1/2 phosphorylation levels incubated for 15 mins by Alphalisa assay; format: cell-based
[16] = target: T1, 5-hydroxytryptamine receptor 1A (Homo sapiens); assay: Bias factor, ratio of biased agonist activity at human recombinant 5-HT1A receptor stably expressed in CHO-K1 cells assessed as inhibition of forskolin-induced cAMP accumulation to biased agonist activity at Gal4-VP16 transcription factor linked human 5-HT1A receptor expressed in human U2OS cells assessed as stimulation of beta-arrestin recruitment; format: functional, cell-based
[17] = target: T1, 5-hydroxytryptamine receptor 1A (Homo sapiens); assay: Bias factor, ratio of biased agonist activity at human recombinant 5-HT1A receptor stably expressed in CHO-K1 cells assessed as increase in ERK1/2 phosphorylation levels to biased agonist activity at Gal4-VP16 transcription factor linked human 5-HT1A receptor expressed in human U2OS cells assessed as stimulation of beta-arrestin recruitment; format: cell-based
[18] = system: Rattus norvegicus; assay: Antidepressant-like activity in Wistar rat assessed as minimum effective dose causing reduction in immobility time after oral administration with compound 60 mins prior to testing and measured for 5 mins test period by Porsolt-forced swim test; format: functional; conditions: 1.083 h, time 65 min, read-out: MED
[19] = system: Rattus norvegicus; assay: Antidepressant-like activity in Wistar rat assessed as maximum effective dose causing reduction in immobility time after oral administration with compound 60 mins prior to testing and measured for 5 mins test period by Porsolt-forced swim test; format: functional; conditions: time 65 min; 1.083 h
[20] = target: T3, 5-hydroxytryptamine receptor 1A; assay: Biased agonist activity at human recombinant 5-HT1A receptor stably expressed in CHO-K1 cells assessed as increase in calcium mobilization measured at 2 sec intervals for 180 secs by Fluo-4AM dye based fluorescence assay; format: functional, cell-based
[21] = system: Rattus norvegicus; assay: Antidepressant-like activity in Wistar rat assessed as reduction in immobility time at 10 mg/kg, ip administered 60 mins prior to testing and measured for 5 mins test period by Porsolt-forced swim test; format: functional; design: scale not given: the % may be the effect or the level left; conditions: time 65 min, 1.083 h

Structure (SMILES) | Emax ([1]; filed as agonist) | Emax ([3]; filed as agonist) | pKi [4] | Emax ([5]; filed as agonist) | Ki [6] | Ki [7] | other results
O=C(c1ccc(F)c(Cl)c1)N1CCC(F)(CNCCOc2cccnc2)CC1 | 100% | 99% | < 6 | 101% |  |  | Emax ([2]; filed as agonist): 98%
O=C(c1ccc(Cl)c(Cl)c1)N1CCC(F)(CNCCOc2ccccc2)CC1 |  |  |  |  | 0.0148 nM | > 1000 nM | 
O=C(c1ccc(F)c(Cl)c1)N1CCC(F)(CNCCOc2ccncc2)CC1 |  |  | < 6 |  | 389 nM | > 1000 nM | 
CNC1(c2ccccc2Cl)CCCCC1=O (centres undefined) [KETAMINE] |  |  |  |  |  |  | minimal effective dose [8]: 5 mg/kg; Activity [9]: 43%
CC(C)NCC(O)COc1cccc2ccccc12 (centres undefined) [PROPRANOLOL] |  |  |  |  |  |  | Papp B→A [10]: 27.4 ×10⁻⁶ cm/s; half-life at 0.1 µM [11]: > 60 min
O=C(c1ccc(F)c(Cl)c1)N1CCC(F)(CNCCOc2cncnc2)CC1 |  |  | < 6 |  | 209 nM | > 1000 nM | 
O=C(c1ccc(F)c(Cl)c1)N1CCC(F)(CNCCSc2ccccn2)CC1 | 76% | 84% |  | 102% |  |  | Emax ([2]; filed as partial agonist): 73%
O=C(c1ccc(F)c(Cl)c1)N1CCC(F)(CNCCCc2ccccn2)CC1 |  |  |  | 101% |  |  | Emax ([1]; filed as partial agonist): 74%; Emax ([2]; filed as agonist): 87%
COCCc1ccc(OCC(O)CNC(C)C)cc1 (centres undefined) [METOPROLOL] |  |  |  |  |  |  | solubility at 200 µM [12]: 181 µM (≈ 48.3 µg/mL)
O=C(c1ccc(F)c(Cl)c1)N1CCC(F)(CNCCOc2ccnnc2)CC1 |  |  | < 6 |  | 200 nM | > 1000 nM | 
Cc1cnc(OCCNCC2(F)CCN(C(=O)c3ccc(F)c(Cl)c3)CC2)nc1 |  |  | < 6 |  |  |  | Emax ([1]; filed as partial agonist): 41%; Emax ([3]; filed as partial agonist): 72%; Emax ([5]; filed as partial agonist): 75%
O=C(c1ccc(F)c(Cl)c1)N1CCC(F)(CNCCOc2ncccn2)CC1 |  |  | < 6 |  |  |  | 
O=C(c1ccc(F)c(Cl)c1)N1CCC(F)(CNCCSc2ccccc2)CC1 |  |  |  |  | 0.562 nM | > 1000 nM | Emax ([1]; filed as partial agonist): 71%; Ratio [13]: 1.27; Emax ([3]; filed as partial agonist): 85%; EC50 [14]: 2450 nM; EC50 [15]: 170 nM; Ratio [16]: -0.45; Ratio [17]: 0.82; Emax ([5]; filed as partial agonist): 70%
Cc1cnc(CNCC2(F)CCN(C(=O)c3ccc(F)c(Cl)c3)CC2)nc1 |  |  |  |  | 2.19 nM | > 1000 nM | minimal effective dose [18]: 0.63 mg/kg; EC50 [14]: 60.3 nM; EC50 [15]: 4.68 nM; ED [19]: 5 mg/kg; EC50 [20]: 245 nM
O=C(c1ccc(F)c(Cl)c1)N1CCC(F)(CNCCNc2ccccc2)CC1 | 79% | 81% | < 6 | 104% |  |  | Emax ([2]; filed as partial agonist): 65%
CN(C)CCCN1c2ccccc2CCc2ccccc21 [IMIPRAMINE] |  |  |  |  |  |  | minimal effective dose [8]: 10 mg/kg; Activity [21]: 25%
O=C(c1ccc(F)c(Cl)c1)N1CCC(F)(CNCCOc2cnccn2)CC1 | 90% | 100% | < 6 | 97% |  |  | Emax ([2]; filed as agonist): 89%
O=C(c1ccc(F)c(Cl)c1)N1CCC(F)(CNCCCc2ccccc2)CC1 | 91% | 77% | < 6 | 99% |  |  | Emax ([2]; filed as partial agonist): 74%
O=C(c1ccc(Cl)c(Cl)c1)N1CCC(F)(CNCCOc2ccccn2)CC1 | 71% | 85% |  | 99% |  |  | Emax ([2]; filed as partial agonist): 58%
O=C(c1ccc(F)c(Cl)c1)N1CCC(F)(CNCCNc2ccccn2)CC1 | 86% |  |  | 99% |  |  | Emax ([2]; filed as partial agonist): 52%
